Data from ChEMBL document CHEMBL1141175, “Synthesis and antiviral evaluation of cis-substituted cyclohexenyl and cyclohexanyl nucleosides” (J Med Chem, 2005).

Columns and labels:
Coxsackievirus = assay: Effective concentration required to inhibit Coxsackie B3 virus induced cytopathicity in vero cells; assay type: functional, organism-based
Human alphaherpesvirus 1 = assay: Effective concentration required to inhibit herpes simplex virus type 1 Kos strain induced cytopathicity in Hel cells; assay type: functional, organism-based; conditions: Human alphaherpesvirus 1, HEL

SMILES | EC50 (Coxsackievirus) | EC50 (Human alphaherpesvirus 1)
N#Cc1cc([N+](=O)[O-])ccc1Oc1ccc(Cl)c(Cl)c1 | 5.84 µM | –
Cc1cn([C@H]2C=CC[C@@H](CO)C2)c(=O)[nH]c1=O (racemic) | > 200 µM | 63 µM
Nc1ncnc2c1ncn2[C@H]1C=CC[C@@H](CO)C1 (racemic) | > 200 µM | > 200 µM
Nc1nc2c(ncn2COCCO)c(=O)[nH]1 [ACYCLOVIR] | – | 0.32 µM
Nc1nc2c(ncn2COC(CO)CO)c(=O)[nH]1 [GANCICLOVIR] | – | 0.06 µM

Next, values leading:

EC50 (Coxsackievirus) | EC50 (Human alphaherpesvirus 1) | SMILES
> 200 µM | > 200 µM | Nc1nc(O)c2ncn([C@H]3C=CC[C@@H](CO)C3)c2n1 (racemic)
168 µM | > 200 µM | Cc1cn([C@H]2CCC[C@@H](CO)C2)c(=O)[nH]c1=O (racemic)
> 200 µM | > 200 µM | Nc1ccn([C@H]2C=CC[C@@H](CO)C2)c(=O)n1 (racemic)
> 200 µM | 62 µM | Nc1ccn([C@H]2CCC[C@@H](CO)C2)c(=O)n1 (racemic)
> 200 µM | > 200 µM | Nc1ncnc2c1ncn2[C@H]1CCC[C@@H](CO)C1 (racemic)
